# Measured values reported in patent US20250250230A1, “HETEROCYCLIC COMPOUND” (TAKEDA PHARMACEUTICAL COMPANY LIMITED, priority 2022, published 2025).
# Key:
# [1] = molecular target: T1, human orexin type 2 receptor (Homo sapiens, UniProt O43614); test: Measurement of orexin type 2 receptor agonist activity (calcium fluorescence, Fluo-4 AM, FDSS); type: cell-based; conditions: test compound 3 μM; CHO cells expressing human OX2 receptor; DMSO = 0%, orexin A (human) = 100%
# T1 construct: expressed in transfected cells
# T1 sequence (O43614 1-444): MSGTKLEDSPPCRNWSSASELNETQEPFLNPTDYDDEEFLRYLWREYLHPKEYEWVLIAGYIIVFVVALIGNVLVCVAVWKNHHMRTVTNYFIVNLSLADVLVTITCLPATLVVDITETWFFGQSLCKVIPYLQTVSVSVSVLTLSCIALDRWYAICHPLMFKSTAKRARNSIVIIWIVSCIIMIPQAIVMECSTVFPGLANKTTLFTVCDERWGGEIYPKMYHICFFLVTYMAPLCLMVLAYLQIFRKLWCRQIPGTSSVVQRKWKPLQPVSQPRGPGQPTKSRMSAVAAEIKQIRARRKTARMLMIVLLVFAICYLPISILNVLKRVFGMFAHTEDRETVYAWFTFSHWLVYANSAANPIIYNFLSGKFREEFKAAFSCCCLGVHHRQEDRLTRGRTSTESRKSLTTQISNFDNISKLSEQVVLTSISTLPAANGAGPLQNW
# Method in brief: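 Agonist response scaled between vehicle (0%) and human orexin A at 10 nM final (100%), from 2-min kinetic Fluo-4 fluorescence reads. Stable hOX2R CHO-K1 clone, dye-loaded in HBSS/20 mM HEPES/0.1% BSA with 1.25 mM probenecid before compound addition.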
# cynomolgus monkeys = test: Evaluation of wake-promoting effects in cynomolgus monkeys (EEG/EMG); type: in vivo, cynomolgus monkey; conditions: 10 mg/kg p.o. at ZT12, time spent in wakefulness for 4 h after administration, male cynomolgus monkeys, n=2
# Description: The wake-promoting effects were evaluated by measuring the electroencephalogram (EEG) and electromyogram (EMG) in cynomolgus monkeys. Under isoflurane anesthesia (0.5-5%, Pfizer Japan Inc., Tokyo, Japan), male cynomolgus monkeys (2-3 years old, Hamri Co., Ltd., Ibaraki, Japan) were surgically implanted with radio-telemetry transmitters (L03-F3, Data Sciences International Inc., MN, USA). EEG electrodes were screwed into the skull at the parietal area. EMG electrodes were implanted on the cervical muscles. After the surgery, each monkey was given penicillin (100,000 units/head, i.m., Meiji Seika Pharma Co., Ltd., Tokyo, Japan), buprenorphine (0.02 mg/kg, i.m., Otsuka Pharmaceutical Co., Ltd., Tokyo, Japan) and prednisolone (1 mg/kg, s.c., Kyoritsu Seiyaku Co., Ltd., Tokyo, Japan) daily for one week. After at least a 1-month recovery period in home cages, the monkeys were habituated to the recording chamber placed in a soundproof room. EEG and EMG signals were recorded using the telemetry system (Ponemah software, Data Sciences International Inc., MN, USA) and the signals were analyzed using SleepSign software (Kissei Comtec Co., Ltd., Nagano, Japan). After confirming long sleep in dark phase in the experimental room, we used animals to examine the wake-promoting effect of compounds. Test compounds (10 mg/kg) suspended in 0.5% methylcellulose aqueous solution, or vehicle (i.e., 0.5% methylcellulose aqueous solution) was administered orally (p.o.) to monkeys at zeitgeber time 12 (ZT12) in a volume of 5 mL/kg body weight in pre-post design (n=2). EEG and EMG recordings were performed for 4 h after the compound administration. The time spent in wakefulness for 4 h after administration (% of vehicle treatment) was calculated by using SleepSign.
Structure (SMILES),"OX2R agonist activity (3 μM, %) [1] [%]",Wakefulness time (% of vehicle treatment) (Mean) (cynomolgus monkeys)
"C[C@@H]1CN(C(=O)[C@@H]2C[C@@]2(F)c2ccccc2-c2c(F)cccc2F)[C@@H]1CNS(C)(=O)=O [Example 358, N-({(2S,3R)-1-[(1S,2S)-2-(2′,6′-difluoro[1,1′-biphenyl]-2-yl)-2-fluorocyclopropane-1-carbonyl]-3-methylazetidin-2-yl}methyl)methanesulfonamide]",96,407.11 % of vehicle treatment
"Cc1ccc([C@]2(F)C[C@H]2C(=O)N2C[C@@H](F)[C@H]2CNS(C)(=O)=O)c(-c2c(F)cccc2F)c1 [Example 411, N-({(2R,3R)-1-[(1S,2S)-2-(2′,6′-difluoro-5-methyl [1,1′-biphenyl]-2-yl)-2-fluorocyclopropane-1-carbonyl]-3-fluoroazetidin-2-yl}methyl)methanesulfonamide]",95,361.41 % of vehicle treatment
"CC[C@@H]1CN(C(=O)[C@@H]2C[C@@]2(F)c2ccccc2-c2c(F)cccc2F)[C@H]1CNS(C)(=O)=O [Example 381, N-({(2R,3R)-1-[(1S,2S)-2-(2′,6′-difluoro[1,1′-biphenyl]-2-yl)-2-fluorocyclopropane-1-carbonyl]-3-ethylazetidin-2-yl}methyl)methylsulfonamide]",90,
"CS(=O)(=O)N[C@@H]1CN(C(=O)C2CC2c2ccccc2-c2c(F)cccc2F)CCC1(F)F (stereo partly drawn) [Example 215, N-{(3R)-1-[(1R,2R)-2-(2′,6′-difluoro [1,1′-biphenyl]-2-yl)cyclopropane-1-carbonyl]-4,4-difluoropiperidin-3-yl}methanesulfonamide, or N-{(3R)-1-[(1S,2S)-2-(2′,6′-difluoro[1,1′-biphenyl]-2-yl)cyclopropane-1-carbonyl]-4,4-difluoropiperidin-3-yl}methanesulfonamide]",98,
"CS(=O)(=O)N[C@@H]1CN(C(=O)[C@@H]2C[C@H]2c2ccccc2-c2c(F)cccc2F)C[C@@H]1F [Example 241, N-{(3R,4S)-1-[(1R,2R)-2-(2′,6′-difluoro[1,1′-biphenyl]-2-yl)cyclopropane-1-carbonyl]-4-fluoropyrrolidin-3-yl}methanesulfonamide]",103,
"O=C(C1CC1c1ccccc1-c1c(F)cccc1F)N1CC[C@H](NS(=O)(=O)CF)C1 (mixture of isomers) [Example 202, a mixture of rac-N-{(3S)-1-[(1R,2R)-2-(2′,6′-difluoro[1,1′-biphenyl]-2-yl)cyclopropane-1-carbonyl]pyrrolidin-3-yl}-1-fluoromethanesulfonamide and N-{(3S)-1-[(1S,2S)-2-(2′,6′-difluoro[1,1′-biphenyl]-2-yl)cyclopropane-1-carbonyl]pyrrolidin-3-yl}-1-fluoromethanesulfonamide]",106,
"CS(=O)(=O)NC1CCCN(C(=O)C2CC2c2cc(F)ccc2-c2c(F)cccc2F)C1 (racemic) [Example 98, a mixture of rac-N-{(3R)-1-[(1R,2R)-2-(2′,4,6′-trifluoro[1,1′-biphenyl]-2-yl)cyclopropane-1-carbonyl]piperidin-3-yl}methanesulfonamide and rac-N-{(3S)-1-[(1R,2R)-2-(2′,4,6′-trifluoro[1,1′-biphenyl]-2-yl)cyclopropane-1-carbonyl]piperidin-3-yl}methanesulfonamide]",56,
"CCS(=O)(=O)NC[C@@H]1[C@H](F)CN1C(=O)C1CC1(F)c1ccc(F)cc1-c1ccccc1Cl (stereo partly drawn) [Example 440, N-({(2R,3R)-1-[(1R,2R)-2-(2′-chloro-5-fluoro[1,1′-biphenyl]-2-yl)-2-fluorocyclopropane-1-carbonyl]-3-fluoroazetidin-2-yl}methyl)ethanesulfonamide, or N-({(2R,3R)-1-[(1S,2S)-2-(2′-chloro-5-fluoro[1,1′-biphenyl]-2-yl)-2-fluorocyclopropane-1-carbonyl]-3-fluoroazetidin-2-yl}methyl)ethanesulfonamide]",91,
"CS(=O)(=O)N[C@H]1CCCN(C(=O)C2CC2c2ccc(F)cc2-c2c(F)cccc2F)C1 (stereo partly drawn) [Example 201, N-{(3S)-1-[(1R,2R)-2-(2′,5,6′-trifluoro[1,1′-biphenyl]-2-yl)cyclopropane-1-carbonyl]piperidin-3-yl}methanesulfonamide, or N-{(3S)-1-[(1S,2S)-2-(2′,5,6′-trifluoro[1,1′-biphenyl]-2-yl)cyclopropane-1-carbonyl]piperidin-3-yl}methanesulfonamide]",101,
"CS(=O)(=O)NC1CCN(C(=O)C2CC2c2ccc(C(F)F)cc2-c2c(F)cccc2F)C1 (racemic) [Example 228, a mixture of rac-N-[(3R)-1-{(1R,2R)-2-[5-(difluoromethyl)-2′,6′-difluoro[1,1′-biphenyl]-2-yl]cyclopropane-1-carbonyl}pyrrolidin-3-yl]methanesulfonamide and rac-N-[(3S)-1-{(1R,2R)-2-[5-(difluoromethyl)-2′,6′-difluoro[1,1′-biphenyl]-2-yl]cyclopropane-1-carbony}pyrrolidin-3-yl]methanesulfonamide]",90,
"CCS(=O)(=O)NC[C@@H]1[C@H](O)CN1C(=O)[C@@H]1C[C@@]1(F)c1ccccc1-c1c(F)cccc1F [Example 374, N-({(2R,3R)-1-[(1S,2S)-2-(2′,6′-difluoro[1,1′-biphenyl]-2-yl)-2-fluorocyclopropane-1-carbonyl]-3-hydroxyazetidin-2-yl}methyl)ethanesulfonamide]",98,
"O=C([C@@H]1C[C@@]1(F)c1ccc(F)cc1-c1c(F)cccc1F)N1C[C@@H](F)[C@H]1CNS(=O)(=O)NC1CC1 [Example 447, N-cyclopropyl-N′-({(2R,3R)-3-fluoro-1-[(1S,2S)-2-fluoro-2-(2′,5,6′-trifluoro[1,1′-biphenyl]-2-yl)cyclopropane-1-carbonyl]azetidin-2-yl}methyl)sulfuric diamide]",90,
"CC1C(C(=O)N2CCC[C@H](NS(C)(=O)=O)C2)C1c1ccccc1-c1c(F)cccc1F (mixture of isomers) [Example 305, a mixture of N-{(3S)-1-[(1R,2R,3S)-2-(2′,6′-difluoro[1,1′-biphenyl]-2-yl)-3-methylcyclopropane-1-carbonyl]piperidin-3-yl}methanesulfonamide and N-{(3S)-1-[(1S,2S,3R)-2-(2′,6′-difluoro[1,1′-biphenyl]-2-yl)-3-methylcyclopropane-1-carbonyl]piperidin-3-yl}methanesulfonamide]",85,
"CCS(=O)(=O)N[C@H]1CCCN(C(=O)C2CC2c2ccccc2-c2c(F)cccc2F)C1 (stereo partly drawn) [Example 239, N-{(3S)-1-[(1R,2R)-2-(2′,6′-difluoro[1,1′-biphenyl]-2-yl)cyclopropane-1-carbonyl]piperidin-3-yl}ethanesulfonamide, or N-{(3S)-1-[(1S,2S)-2-(2′,6′-difluoro[1,1′-biphenyl]-2-cyclopropane-1-carbonyl]piperidin-3-yl}ethanesulfonamide]",97,
"CS(=O)(=O)N[C@H]1CCN(C(=O)C2C(c3ccccc3-c3c(F)cccc3F)C2(F)F)C1 (mixture of isomers) [Example 320, a mixture of N-{(3S)-1-[(1R,2R)-2-(2′,6′-difluoro[1,1′-biphenyl]-2-yl)-2,2-difluorocyclopropane-1-carbonyl]pyrrolidin-3-yl}methanesulfonamide and N-{(3S)-1-[(1S,3S)-3-(2′,6′-difluoro[1,1′-biphenyl]-2-yl)-2,2-difluorocyclopropane-1-carbonyl]pyrrolidin-3-yl}methanesulfonamide]",101,
